Publication PMC11823609, “Advancements in the fight against globally distributed OXA-48 carbapenemase: evaluating the new generation of carbapenemase inhibitors” (Antimicrobial Agents and Chemotherapy, 2025)
Values after ≈ are worked out from the molar mass of the structure shown.

How the values were obtained:
E. coli TG1 = experiment: microbe, parasite or virus in culture; type: cell-based; conditions: Escherichia coli, β-lactamase inhibitor alone
Experimental: (§1) The MICs of each of the individual compounds (antibiotics or inhibitors) were also determined. The MICs were determined for the E. coli isogenic expressing OXA-48 (and both OXA-48 and CTX-M-14) to assess their activity against the carbapenemase; MICs were also determined for the 18 Enterobacterales clinical isolates in order to evaluate the new inhibitors against also their resistance concomitant mechanisms. The MICs were determined in triplicate experiments, and the EUCAST 13.0 clinical breakpoints were followed (http://www.eucast.org/clinical_breakpoints).
(§2) For comparative evaluation of the activity of each inhibitor alone against the carbapenemase OXA-48, all inhibitors (at 4 mg/L) were tested in the presence of a carbapenem (ertapenem, adequate substrate) and a cephalosporin (ceftazidime, poor substrate) as reporter substrates. This prevented any possible masking effect produced by the different partner antibiotics. These assays were also performed with isogenic transformants and clinical isolates.

E. coli TG1 (OXA-48) = experiment: microbe, parasite or virus in culture; type: cell-based, Escherichia coli; conditions: Escherichia coli
Experimental: as §1, §2

[1] = test system: E. coli HB4 ΔompC/F (CTX-M-14 + OXA-48); experiment: microbe, parasite or virus in culture; type: cell-based, Escherichia coli
Text: (§3) The E. coli HB4 strain was used to gain a more complete perspective, by evaluating the involvement in resistance of a low permeability background with the carbapenemase OXA-48, as well as coproduction of an ESBL and the carbapenemase; thus, the ESBL CTX-M-14 and OXA-48 were cloned together and separately into E. coli HB4. The characteristics of these strains and transformants are summarized in Table S1, and the cloning procedures are outlined in the supplemental methods.
as §1, §2

[2] = test system: E. coli HB4 ΔompC/F (CTX-M-14); experiment: microbe, parasite or virus in culture; type: cell-based, Escherichia coli; conditions: Escherichia coli
Text: as §3, §1, §2

[3] = test system: E. coli HB4 ΔompC/F (OXA-48); experiment: microbe, parasite or virus in culture; type: cell-based, Escherichia coli; conditions: Escherichia coli
Text: as §3, §1, §2

E. coli HB4 ΔompC/F = experiment: microbe, parasite or virus in culture; type: cell-based, Escherichia coli; conditions: Escherichia coli
Text: as §3, §1, §2

[4] = test system: E. cloacae strain 231 (MLST 171, No ESBL); experiment: microbe, parasite or virus in culture; type: cell-based; conditions: Enterobacter cloacae; E. cloacae 231; β-lactamase inhibitor alone; read-out: MIC
Experimental: (§4) The efficacy of these new BLIs was also evaluated against 18 genetically diverse WGS-characterized collection of OXA-48-positive Enterobacterales recovered as part of the Carbapenem-resistant Enterobacterales Genome Database Project (https://genomes.cnag.cat/incredble) listed in Table S2 ([13]). Combinations of clinical isolates (five pairs of Klebsiella pneumoniae, two pairs of Enterobacter cloacae, and two pairs of E. coli) were chosen for analysis: (i) nine strains carrying ESBLs; and (ii) nine strains (genetically closer available strains) without ESBLs.
as §1, §2

[5] = test system: E. cloacae strain 235 (MLST 171, ESBL); experiment: microbe, parasite or virus in culture; type: cell-based; conditions: Enterobacter cloacae
Experimental: as §4, §1, §2

[6] = test system: E. cloacae strain 272 (MLST 78, ESBL); experiment: microbe, parasite or virus in culture; type: cell-based; conditions: Enterobacter cloacae
Experimental: as §4, §1, §2

[7] = test system: E. cloacae strain 281 (MLST 78, No ESBL); experiment: microbe, parasite or virus in culture; type: cell-based; conditions: Enterobacter cloacae; E. cloacae 281; β-lactamase inhibitor alone; read-out: MIC
Experimental: as §4, §1, §2

[8] = test system: E. coli strain 103 (MLST 10, ESBL); experiment: microbe, parasite or virus in culture; type: cell-based; conditions: Escherichia coli
Experimental: as §4, §1, §2

[9] = test system: E. coli strain 177 (MLST 131, ESBL); experiment: microbe, parasite or virus in culture; type: cell-based; conditions: Escherichia coli
Experimental: as §4, §1, §2

[10] = test system: E. coli strain 224 (MLST 127, No ESBL); experiment: microbe, parasite or virus in culture; type: cell-based; conditions: Escherichia coli; E. coli 224; β-lactamase inhibitor alone; read-out: MIC
Experimental: as §4, §1, §2

[11] = test system: E. coli strain 264 (MLST 131, No ESBL); experiment: microbe, parasite or virus in culture; type: cell-based; conditions: Escherichia coli; E. coli 264; β-lactamase inhibitor alone; read-out: MIC
Experimental: as §4, §1, §2

[12] = test system: K. pneumoniae strain 125 (MLST 307, ESBL); experiment: microbe, parasite or virus in culture; type: cell-based; conditions: Klebsiella pneumoniae
Experimental: as §4, §1, §2

[13] = test system: K. pneumoniae strain 170 (MLST 307, No ESBL); experiment: microbe, parasite or virus in culture; type: cell-based; conditions: Klebsiella pneumoniae; K. pneumoniae 170; β-lactamase inhibitor alone; read-out: MIC
Experimental: as §4, §1, §2

[14] = test system: K. pneumoniae strain 19 (MLST 11, ESBL); experiment: microbe, parasite or virus in culture; type: cell-based; conditions: Klebsiella pneumoniae
Experimental: as §4, §1, §2

[15] = test system: K. pneumoniae strain 194 (MLST 392, No ESBL); experiment: microbe, parasite or virus in culture; type: cell-based; conditions: Klebsiella pneumoniae; K. pneumoniae 194; β-lactamase inhibitor alone; read-out: MIC
Experimental: as §4, §1, §2

[16] = test system: K. pneumoniae strain 23 (MLST 392, ESBL); experiment: microbe, parasite or virus in culture; type: cell-based; conditions: Klebsiella pneumoniae
Experimental: as §4, §1, §2

[17] = test system: K. pneumoniae strain 237 (MLST 147, No ESBL); experiment: microbe, parasite or virus in culture; type: cell-based; conditions: Klebsiella pneumoniae; K. pneumoniae 237; β-lactamase inhibitor alone; read-out: MIC
Experimental: as §4, §1, §2

[18] = test system: K. pneumoniae strain 238 (MLST 15, ESBL); experiment: microbe, parasite or virus in culture; type: cell-based; conditions: Klebsiella pneumoniae
Experimental: as §4, §1, §2

[19] = test system: K. pneumoniae strain 413 (MLST 147, ESBL); experiment: microbe, parasite or virus in culture; type: cell-based; conditions: Klebsiella pneumoniae
Experimental: as §4, §1, §2

[20] = test system: K. pneumoniae strain 497 (MLST 11, No ESBL); experiment: microbe, parasite or virus in culture; type: cell-based; conditions: Klebsiella pneumoniae; K. pneumoniae 497; β-lactamase inhibitor alone; read-out: MIC
Experimental: as §4, §1, §2

[21] = test system: K. pneumoniae strain 71 (MLST 15, No ESBL); experiment: microbe, parasite or virus in culture; type: cell-based; conditions: Klebsiella pneumoniae; K. pneumoniae 71; β-lactamase inhibitor alone; read-out: MIC
Experimental: as §4, §1, §2

[22] = test system: E. coli TG1 and HB4 transformants; experiment: MIC summary over E. coli transformants; type: cell-based, Escherichia coli; conditions: OXA-48-producing E. coli hosts; BLI 4 mg/L
Text: as §3, §1, §2

OXA-48 = OXA-48 (Klebsiella pneumoniae, UniProt Q6XEC0); conditions: ref 26 Lahiri et al.; cited from earlier work
Chain of OXA-48 (Q6XEC0 23-265 limits assumed): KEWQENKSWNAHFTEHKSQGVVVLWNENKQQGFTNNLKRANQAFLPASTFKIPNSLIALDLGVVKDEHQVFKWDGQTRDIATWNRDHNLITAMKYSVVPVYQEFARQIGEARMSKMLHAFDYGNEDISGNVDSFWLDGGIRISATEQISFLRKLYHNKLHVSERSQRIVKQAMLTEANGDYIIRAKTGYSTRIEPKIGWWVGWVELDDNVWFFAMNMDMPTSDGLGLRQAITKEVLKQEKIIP

For `NC(=O)[C@@H]1CC[C@@H]2CN1C(=O)N2OS(=O)(=O)O` [Avibactam, avibactam], which MIC (E. coli TG1) is on record?
The MIC was 4 µg/mL (≈ 15.1 µM).

What about the MIC (E. coli TG1 (OXA-48)) of the same molecule?
The MIC was 4 µg/mL (≈ 15.1 µM).

And the “decrease of ertapenem MIC with BLI” value ([1]; E. coli HB4 coproducing CTX-M-14 and OXA-48, BLI 4 mg/L)?
Its value is 256 fold.

And the MIC ([1]; Escherichia coli)?
Its MIC is 16 µg/mL (≈ 60.3 µM).

What about the MIC [2] of the same molecule?
The MIC was 16 µg/mL (≈ 60.3 µM).

What about the MIC [3] of the same molecule?
Its MIC is 8 µg/mL (≈ 30.2 µM).

What about the MIC (E. coli HB4 ΔompC/F) of the same molecule?
The MIC was 8 µg/mL (≈ 30.2 µM).

And the MIC [4]?
The MIC was 8 µg/mL.

What about the MIC [5] of the same molecule?
The MIC was 32 µg/mL.

What about the MIC [6] of the same molecule?
The MIC was 32 µg/mL.

What about the MIC [7] of the same molecule?
The MIC was 16 µg/mL.

And the MIC [8]?
Its MIC is 32 µg/mL.

And the MIC [9]?
Its MIC is 32 µg/mL.

And the MIC [10]?
Its MIC is 16 µg/mL.

What about the MIC [11] of the same molecule?
The MIC was 16 µg/mL.

What about the MIC [12] of the same molecule?
The MIC was 32 µg/mL.

What about the MIC [13] of the same molecule?
Its MIC is 16 µg/mL.

What about the MIC [14] of the same molecule?
Its MIC is at least 128 µg/mL.

What about the MIC [15] of the same molecule?
The MIC was 16 µg/mL.

What about the MIC [16] of the same molecule?
The MIC was 16 µg/mL.

What about the MIC [17] of the same molecule?
The MIC was 64 µg/mL.

And the MIC [18]?
The MIC was 32 µg/mL.

What about the MIC [19] of the same molecule?
The MIC was 64 µg/mL.

And the MIC [20]?
The MIC was at least 128 µg/mL.

And the MIC [21]?
Its MIC is 32 µg/mL.

And the “decrease of ertapenem MIC with BLI” value [22]?
Its value is 8–256 fold.

What about the t1/2 (OXA-48) of the same molecule?
The t1/2 was 1,000 min.
